{"source": "paper PMC4979471", "about": "(Cell Death Discovery, 2015)", "assay_in_all_cases": "Kinase selectivity, P33-radiolabeled assay", "format_in_all_cases": "biochemical", "conditions_in_all_cases": "10 μM ATP", "key": {"ALK5/TGFBR1": {"molecular_target": "T1, ALK5/TGFBR1 (Homo sapiens, UniProt P36897)", "T1 construct": "purchased Reaction Biology Corp", "T1 sequence (P36897 34-503)": "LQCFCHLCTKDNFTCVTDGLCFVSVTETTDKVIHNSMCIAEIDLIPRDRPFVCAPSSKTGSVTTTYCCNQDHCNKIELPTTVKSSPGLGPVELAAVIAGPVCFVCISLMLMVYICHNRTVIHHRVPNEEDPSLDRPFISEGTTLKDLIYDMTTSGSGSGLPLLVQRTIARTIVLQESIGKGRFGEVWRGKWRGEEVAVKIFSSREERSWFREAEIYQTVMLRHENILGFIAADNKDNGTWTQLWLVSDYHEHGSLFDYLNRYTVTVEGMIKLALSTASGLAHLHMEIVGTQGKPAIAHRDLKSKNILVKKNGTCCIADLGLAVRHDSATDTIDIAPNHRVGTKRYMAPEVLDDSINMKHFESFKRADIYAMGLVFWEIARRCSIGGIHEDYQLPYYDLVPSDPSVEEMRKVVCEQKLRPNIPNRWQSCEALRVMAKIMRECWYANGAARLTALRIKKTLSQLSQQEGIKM", "in_short": "(§1)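 Values show % enzyme activity normalised to DMSO vehicle. They come from one 10 μM compound concentration run twice, at an ATP level of 10 μM.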"}, "GRK2": {"molecular_target": "T2, GRK2 (Homo sapiens, UniProt P25098)", "T2 construct": "purchased Reaction Biology Corp", "T2 sequence (P25098 1-689)": "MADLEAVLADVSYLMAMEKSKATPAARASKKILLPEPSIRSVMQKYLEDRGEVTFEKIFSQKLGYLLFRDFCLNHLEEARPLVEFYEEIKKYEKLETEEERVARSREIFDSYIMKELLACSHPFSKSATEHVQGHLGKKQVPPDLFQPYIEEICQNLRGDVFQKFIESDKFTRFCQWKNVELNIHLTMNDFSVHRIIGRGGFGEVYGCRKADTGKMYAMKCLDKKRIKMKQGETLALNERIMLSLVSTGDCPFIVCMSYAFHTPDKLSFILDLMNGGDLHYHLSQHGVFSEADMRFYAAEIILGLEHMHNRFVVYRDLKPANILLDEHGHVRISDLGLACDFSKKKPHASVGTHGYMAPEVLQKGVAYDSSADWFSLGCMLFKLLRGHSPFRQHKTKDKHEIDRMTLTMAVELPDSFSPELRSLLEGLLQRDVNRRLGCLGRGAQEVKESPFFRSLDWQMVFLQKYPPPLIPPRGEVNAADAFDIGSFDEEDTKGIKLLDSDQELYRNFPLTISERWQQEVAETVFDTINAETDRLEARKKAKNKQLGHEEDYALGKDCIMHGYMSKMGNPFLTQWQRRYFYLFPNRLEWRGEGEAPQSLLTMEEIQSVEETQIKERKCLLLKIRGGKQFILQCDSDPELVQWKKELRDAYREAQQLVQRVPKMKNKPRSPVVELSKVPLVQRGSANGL", "in_short": "as §1"}, "TYRO3/SKY": {"molecular_target": "T3, TYRO3/SKY (Homo sapiens, UniProt Q06418)", "T3 construct": "purchased Reaction Biology Corp", "T3 sequence (Q06418 41-890)": "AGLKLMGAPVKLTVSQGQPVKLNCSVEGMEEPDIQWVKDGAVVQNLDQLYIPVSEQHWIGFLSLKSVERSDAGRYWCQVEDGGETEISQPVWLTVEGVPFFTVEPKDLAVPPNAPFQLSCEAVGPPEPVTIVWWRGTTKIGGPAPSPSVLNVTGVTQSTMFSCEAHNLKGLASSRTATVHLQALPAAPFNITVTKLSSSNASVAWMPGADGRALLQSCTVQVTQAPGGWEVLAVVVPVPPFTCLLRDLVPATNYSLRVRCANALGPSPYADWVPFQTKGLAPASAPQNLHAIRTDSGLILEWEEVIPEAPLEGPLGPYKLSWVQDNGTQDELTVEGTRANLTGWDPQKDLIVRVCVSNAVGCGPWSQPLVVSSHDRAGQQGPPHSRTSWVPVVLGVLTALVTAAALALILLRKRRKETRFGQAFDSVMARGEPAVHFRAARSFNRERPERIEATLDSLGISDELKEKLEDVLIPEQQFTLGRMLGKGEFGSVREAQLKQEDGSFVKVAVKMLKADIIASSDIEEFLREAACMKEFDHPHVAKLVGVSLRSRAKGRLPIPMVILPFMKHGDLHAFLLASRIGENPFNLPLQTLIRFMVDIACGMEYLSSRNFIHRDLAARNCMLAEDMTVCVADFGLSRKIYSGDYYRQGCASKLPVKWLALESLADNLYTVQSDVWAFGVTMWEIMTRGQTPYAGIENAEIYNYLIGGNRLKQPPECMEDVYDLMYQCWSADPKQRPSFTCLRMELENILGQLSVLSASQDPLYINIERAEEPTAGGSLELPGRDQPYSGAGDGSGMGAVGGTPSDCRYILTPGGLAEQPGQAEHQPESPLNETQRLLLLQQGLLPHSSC", "in_short": "as §1"}, "VRK2": {"molecular_target": "T4, VRK2 (Homo sapiens, UniProt Q86Y07)", "T4 construct": "purchased Reaction Biology Corp", "T4 sequence (Q86Y07 whole entry)": "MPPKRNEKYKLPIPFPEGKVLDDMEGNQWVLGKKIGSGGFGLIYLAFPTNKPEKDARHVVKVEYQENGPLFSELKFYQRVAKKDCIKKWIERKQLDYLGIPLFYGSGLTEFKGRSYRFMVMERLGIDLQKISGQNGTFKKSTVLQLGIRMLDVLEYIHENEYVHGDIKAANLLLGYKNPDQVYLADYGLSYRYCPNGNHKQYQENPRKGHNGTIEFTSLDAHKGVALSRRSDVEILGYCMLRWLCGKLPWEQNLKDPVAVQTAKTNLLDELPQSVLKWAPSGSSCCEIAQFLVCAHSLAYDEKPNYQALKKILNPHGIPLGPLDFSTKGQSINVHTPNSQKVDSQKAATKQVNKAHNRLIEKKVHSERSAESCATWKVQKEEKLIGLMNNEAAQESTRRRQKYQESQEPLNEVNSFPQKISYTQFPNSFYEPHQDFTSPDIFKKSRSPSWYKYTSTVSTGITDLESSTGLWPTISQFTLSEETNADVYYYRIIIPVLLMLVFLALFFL", "in_short": "as §1"}, "[1]": {"conditions": "read-out: % Enzyme Activity (relative to DMSO controls) AVG"}, "[2]": {"conditions": "read-out: % Enzyme Activity (relative to DMSO controls) Data 1"}, "[3]": {"conditions": "read-out: % Enzyme Activity (relative to DMSO controls) Data 2"}}, "note": "Where two headings read alike, the source gives them in different places."}
{"smiles": "CC(C)(C)C(=O)N1N=CC[C@H]1c1ccccc1", "note": "[GSK′963]", "values": [{"measurement": "remaining activity at 10 µM", "setting": "ALK5/TGFBR1; [1]", "result": 94.1, "unit": "%"}, {"measurement": "remaining activity at 10 µM", "setting": "ALK5/TGFBR1; [2]", "result": 97, "unit": "%"}, {"measurement": "remaining activity at 10 µM", "setting": "ALK5/TGFBR1; [3]", "result": 91.2, "unit": "%"}, {"measurement": "remaining activity at 10 µM", "setting": "GRK2; [1]", "result": 95.7, "unit": "%"}, {"measurement": "remaining activity at 10 µM", "setting": "GRK2; [2]", "result": 99.5, "unit": "%"}, {"measurement": "remaining activity at 10 µM", "setting": "GRK2; [3]", "result": 91.8, "unit": "%"}, {"measurement": "remaining activity at 10 µM", "setting": "TYRO3/SKY; [1]", "result": 97.2, "unit": "%"}, {"measurement": "remaining activity at 10 µM", "setting": "TYRO3/SKY; [2]", "result": 97.1, "unit": "%"}, {"measurement": "remaining activity at 10 µM", "setting": "TYRO3/SKY; [3]", "result": 97.3, "unit": "%"}, {"measurement": "remaining activity at 10 µM", "setting": "VRK2; [1]", "result": 107, "unit": "%"}, {"measurement": "remaining activity at 10 µM", "setting": "VRK2; [2]", "result": 107, "unit": "%"}, {"measurement": "remaining activity at 10 µM", "setting": "VRK2; [3]", "result": 108, "unit": "%"}]}
